Results on one molecule are retold here after publication PMC6102549, “Synthesis and Evaluation of C15 Triene Urushiol Derivatives as Potential Anticancer Agents and HDAC2 Inhibitor” (Molecules : A Journal of Synthetic Chemistry and Natural …, 2018).

Common to all, as to type: cell-based, human
For assay [1], the system named is HepG2 cells. The assay is described as follows: MTT assay, inhibition of proliferation of HepG2 cells. The settings on record: for IC50: in vitro, 72 h. On the procedure:
As shown in Figure 1 and Table 1, compounds 1–16 were evaluated for their inhibitory effects on the proliferation of HepG2 and LO2 cells by MTT assay. […] It provided the experimental basis for the subsequent synthesis of attenuating and improving urushiol derivatives.
Detection of cell proliferation by MTT
MTT assay was used to determine the inhibitory effect of the sample on the proliferation of HepG2 cells. The tumor cells of logarithmic growth stage were inoculated with 3.5 * 103 / well in 96 well culture plate. 0.2 ml/pore system was cultured for 72 h with different concentrations of samples. Then 20μL(final concentration 0.5 mg / mL) of MTT were added to each pore for 4 h. The supernatant was carefully adsorbed, DMSO 0.15 mL was added to each pore, and oscillatory mixing was carried out. The absorbance (A) value at 490 nm wavelength was measured by enzyme labeling instrument. The inhibition rate of cell proliferation was calculated as follows: [(A value of negative control group-A value of blank group)-(A value of experimental group A value of blank group)] / (negative pair group A-A value of blank group) × 100.Statistical method. The statistical analysis was carried out by SPSS 17.0 statistical software. The measured data were described by x ±s, and the mean of the two samples was compared with t test (P < 0. 05).
Materials and methods: Main reagents and instruments […]
Full-range rainbow […]
The HepG2 cells were cultured in a saturated humidity incubator with 90% […]
Jiangsu Kaiji Biotechnology Co., Ltd. Main reagents and consumables Cell culture bottle […]
Cell proliferation measured by MTT
1) the cells were digested and counted, the cell suspension was prepared by 3 x 10^4 /ml, and 100 micron L cell suspension was added to each hole in the 96 hole cell culture plate.
2) 96 hole cell culture plate was placed in 37, 5%, CO2 culture box for 24 hours.
3) use the medium to dilute the drug to the desired working fluid concentration, add 100 micron l per hole to the corresponding drug medium, and establish a negative control group and a positive control group (paclitaxel, 20ug/ml).
4) 96 hole cell culture plate was placed at 37 ℃ and 5% CO2 incubator for 72 hours.
5) 96 hole board for MTT staining, lambda =490nm, OD value determination; a. 20 μL MTT (5mg/ml) per hole was added to the culture box for 4 hours. b. discarding the supernatant, adding 150 μL DMSO for each hole, and gently mixing the […]
c. lambda =490nm, ELISA od readout per hole, the inhibition rate was calculated.
6) calculate the inhibition rate of each group.The inhibition rate (%) = (negative control group OD value of experimental group / OD) negative control group OD x 100% […]
7 check the machine and record the red fluorescence at the excitation wavelength of 488nm.
Detection of apoptosis by Annexin-V FITC/PI double staining
(1) inoculate the logarithmic growth cells into the six-hole plate. The next day, after the cells are adhered to the wall, according to the group . The culture medium containing medicine was added and the negative control group was set up at the same time
(2) after 72 hours of treatment, the cells were digested with 0.25% trypsin (excluding […]
(3) 5 × 10 ~ 5 cells were collected by PBS washing cells twice (centrifugation 2000rpm for 5
On the technique in general: Tetrazolium assays rely on reduction of a dye to a coloured formazan, in cell work by metabolically active cells.

Assay [2] has as its system HepG2 cells. Briefly: PI single staining assay for cell cycle (flow cytometry). The settings on record: for G1 (%) / G2 (%) / S (%): 72 h. On the procedure:
After the cells were tested with three different doses of Compound 1 (1, 3, and 12 μM), they were collected and detected by flow cytometry. […] Compared with the blank control group, the proportion of cells in G0/G1 phase of each dose of compound 1 increased gradually, but both the percentage of S stage cells and the proportion of cells in G2/M stage decreased to some extent. […]
Detection of cell cycle by PI single staining
1, the logarithmic growth phase were digested and inoculated into six well plates, the next day, after the cells adhered, according to the group set to join the corresponding drug containing medium, and the establishment of the negative control group; 2, after the action of 72h, the cells were digested with 0.25% pancreatin (not containing […]
3, 5 x 10^5 cells were collected by PBS scrubbing cells (centrifuge 2000rpm, 5min).
4, the single cell suspension prepared was fixed for 2 hours (or overnight) with a volume fraction of 70% ethanol, and stored at 4 ℃. Before washing, PBS was used to remove the fixative solution (if needed, cell suspension was filtered through 200 mesh mesh).
5 plus 100 mu L RNase A 37 ℃ water bath 30min;
6, adding 400 L PI dyeing and avoiding light 30min at 4 ℃.
7 check the machine and record the red fluorescence at the excitation wavelength of 488nm. […]
In general terms: In flow cytometry, cells or beads pass a laser one at a time.

Assay [3] has as its system HepG2 cells. The assay is described as follows: JC-1 staining assay of mitochondrial membrane potential. On the procedure: Detection of mitochondrial membrane potential by JC-1 staining
1inoculate the logarithmic growth cell digestion into the six-hole plate, the next day, after the cells adhered to the wall, according to the group set up to add the corresponding drug medium, and set up a negative control group at the same time;
(2) the cell concentration was collected and adjusted to 1 × 10^6 / ml by PBS washing (centrifugation 2000rpm for 5 min);
(3) 100 μ L 10 × Incubation Buffer and 900 μ L sterilized deionized water were diluted to 1 × Incubation buffer, and then preheated to 37 ℃;
(4) 500 μ L 1 × Incubation buffer was absorbed and 1 μ L JC-1 was added to prepare JC-1 […]
(5) the cells were incubated in a incubator containing CO 2 at 37 ℃ for 15 ~ 20 min with […]
(6) the cells were collected by centrifugation at room temperature for 5 min and washed twice with 1 × Incubation Buffer.
(7) resuspension cells of 500 μ L 1 × Incubation Buffer;
(8) on the computer test. […]

Assay [4] concerns HepG2 cells. The assay is described as follows: Morphological observation of HepG2 cells. The settings on record: 6.25, 25 and 50 μM. On the procedure: The mortality rate of HepG2 cells was increasing faster on higher concentration of compound 1. The inhibition of cell proliferation strengthened over time. […] The cells became round, the volume became smaller and the refraction decreased. When the cells were treated with high concentration of compound 1, the cells were suspended and shed. The cells no longer adhered to the wall. They gradually became round, and the membrane ruptured, shrank and finally lost vitality.

Usually IC50 stands for the concentration that gives 50% inhibition. Regarding `C/C=C\C=C\C/C=C\CCCCCCCc1cccc(O)c1O[Si](CCCS)(OC)OC` [Compound 1], the “inhibitory activity on HepG2 cells proliferation (in words)” value in assay [1] was “strong”. In addition, the IC50 in assay [1] (Homo sapiens, HepG2, 72 h) is 7.89 µM; in assay [1], 7.88 µM. Further, the “G1 (%)” value in assay [2] (HepG2, 1 μM) was 54.48%; in assay [2] (HepG2, 3 μM) it was 60.17%; in assay [2] (HepG2, 12 μM) it was 65.80%. Also, the “G2 (%)” value in assay [2] (HepG2, 1 μM) was 15.79%; in assay [2] (HepG2, 3 μM) it was 13.64%; in assay [2] (HepG2, 12 μM), 13.79%. Also, the “S (%)” value came out at 29.72% in assay [2] (HepG2, 1 μM); 26.19% in assay [2] (HepG2, 3 μM); 20.40% in assay [2] (HepG2, 12 μM). Further, the “effect on cell cycle (in words)” value in assay [2] (HepG2, 1, 3 and 12 μM) was “block cells in G0/G1 phase”. For the same molecule, the “UR % Gated” value in assay [3] (HepG2, JC-1, 12 μM) is 46.18%. Also, the “Green Fluorescence (%) (LR % gated)” value in assay [3] (HepG2, JC-1, 1 μm) was 16.72%; in assay [3] (HepG2, JC-1, 3 μm) it was 28.14%; in assay [3] (HepG2, JC-1, 12 μm), 53.82%. Besides, the “proliferation of HepG2 cells by morphological observation (in words)” value in assay [4] was “gradually inhibited”.
